Reference: patent US11130741B2 (Bioimics AB, priority 2016, dated 2021)
In brackets after ≈: the same amount, converted by molar mass. Like-named read-outs stand apart in the source and are kept apart here.

Columns and labels:
[1] = tested on: Enterococcus faecalis (ATCC29212); experiment: MIC, broth microdilution (CLSI), Enterococcus faecalis ATCC29212; format: cell-based; conditions: read-out: MIC E. faecalis ATCC 29212
K. pneumoniae ATCC 43816 = experiment: MIC, K. pneumoniae ATCC 43816; format: cell-based; conditions: Klebsiella pneumoniae, ATCC43816
[2] = tested on: Pseudomonas aeruginosa (ATCC27853); experiment: microbe, parasite or virus in culture; format: cell-based; conditions: read-out: MIC P. aeruginosa ATCC 27853
[3] = tested on: Staphylococcus aureus (ATCC25923); experiment: MIC, broth microdilution (CLSI), Staphylococcus aureus ATCC25923; conditions: ATCC25923, read-out: S. aureus ("Clinical") MIC
H. influenzae ATCC 49247 = experiment: MIC, H. influenzae ATCC 49247; format: cell-based; conditions: Haemophilus influenzae, ATCC49247
[4] = tested on: Escherichia coli (ATCC25922); experiment: MIC, broth microdilution (CLSI), Escherichia coli ATCC25922
A. baumannii ATCC 17978 = experiment: MIC, A. baumannii ATCC 17978; format: cell-based; conditions: Acinetobacter baumannii, ATCC17978
[5] = tested on: P. aeruginosa NTUH-974 (MDR); experiment: MIC, P. aeruginosa NTUH-974 (MDR); format: cell-based; conditions: Pseudomonas aeruginosa, read-out: MIC P. aeruginosa NTUH-974 (MDR)
S. pneumoniae ATCC 49619 = experiment: MIC, S. pneumoniae ATCC 49619; format: cell-based; conditions: Streptococcus pneumoniae, ATCC49619
S. aureus ATCC 29213 = experiment: MIC, S. aureus ATCC 29213 + 50% HS; format: cell-based; conditions: Staphylococcus aureus, ATCC29213
N. gonorrhoeae 612501 = experiment: MIC, N. gonorrhoeae 612501; format: cell-based; conditions: Neisseria gonorrhoeae
[6] = tested on: Staphylococcus aureus subsp. aureus (ATCC29213); experiment: MIC, broth microdilution (CLSI), Staphylococcus aureus subsp. aureus ATCC29213; format: cell-based; conditions: ATCC29213, Table 16, read-out: MIC S. aureus ATCC 29213
E. faecium ATCC 700221 = experiment: MIC, E. faecium ATCC 700221; format: cell-based; conditions: Enterococcus faecium, ATCC700221; read-out: MIC E. faecium ATCC 700221
[7] = tested on: E. coli RNase P RNA, M1 RNA; experiment: Initial inhibition of RNase P activity (normalised cleavage of pATSerUG at maximum compound concentration); format: biochemical; conditions: at 8 μM; normalised cleavage (cleavage with compound / without compound)
E. coli JW5503 = experiment: MIC, E. coli JW5503; format: cell-based; conditions: Escherichia coli, JW5503, read-out: MIC E. coli JW5503
[8] = tested on: S. aureus MRSA ATCC 33591; experiment: MIC, S. aureus MRSA ATCC 33591; format: cell-based; conditions: Staphylococcus aureus; read-out: MIC S. aureus MRSA ATCC 33591

Nc1cc(C(F)(F)F)cc2c1N(CCCn1ccnc1)c1ccccc1S2 [compound 44, 10-(3-(1H-imidazol-1-yl)propyl)-3-(trifluoromethyl)-10H-phenothiazin-1-amine]
MIC [1]: 16 µg/mL (≈ 41 µM) | MIC (K. pneumoniae ATCC 43816): > 128 µg/mL | MIC [2]: > 128 µg/mL | MIC [3]: 2 µg/mL (≈ 5.12 µM) | MIC (H. influenzae ATCC 49247): 16 µg/mL (≈ 41 µM) | MIC ([4]; ATCC25922, read-out: E. coli MIC, Table 15, NI = No inhibition): > 100 µg/mL | MIC ([4]; ATCC25922, read-out: MIC E. coli ATCC 25922): > 128 µg/mL | MIC (A. baumannii ATCC 17978): > 128 µg/mL | MIC [5]: > 128 µg/mL | MIC (S. pneumoniae ATCC 49619): 16 µg/mL (≈ 41 µM) | MIC (S. aureus ATCC 29213): > 128 µg/mL | MIC (N. gonorrhoeae 612501): 2 µg/mL (≈ 5.12 µM) | MIC [6]: 4 µg/mL (≈ 10.2 µM) | MIC (E. faecium ATCC 700221): 8 µg/mL (≈ 20.5 µM) | Normalised RNase P cleavage (fraction of control) [7]: 1.06 | MIC (E. coli JW5503): 8 µg/mL (≈ 20.5 µM) | MIC [8]: 64 µg/mL (≈ 164 µM)
